In the NIST ThermoML archive (doi:10.1016/j.jct.2012.07.015):
Numbers after ± are expanded uncertainties.

How the values were obtained:
[1] = for viscosity / mass density: 101.33 kPa; for viscosity / mass density / surface tension liquid-gas: Liquid; for mass density: Vibrating tube method
[2] = Molar enthalpy of transition or fusion; conditions: Crystal; DSC
[3] = molar heat capacity at constant pressure; conditions: 101.33 kPa, Liquid, Small sample (50 mg) DSC

CCCCCC[n+]1ccc(C#N)cc1.O=S(=O)([N-]S(=O)(=O)C(F)(F)F)C(F)(F)F [1-hexyl-4-cyanopyridinium bis(trifluoromethylsulfonyl)imide]
Conditions	Glass transition temperature [°C]	mass density [kg/m3]	molar heat capacity at constant pressure [J/K/mol]	surface tension liquid-gas [mN/m]	viscosity [mPa·s]
[1], 293.15 K	–	1411.6 ± 1.8	–	–	1065.6 ± 130
[1], 298.15 K	–	1407.1 ± 1.8	–	30.6 ± 0.92	704.2 ± 76
[1], 303.15 K	–	1402.6 ± 1.8	–	–	481.8 ± 44
[1], 308.15 K	–	1398.1 ± 1.8	–	30.25 ± 0.91	340.3 ± 27
[1], 313.15 K	–	1393.6 ± 1.8	–	–	235.8 ± 15
[1], 318.15 K	–	1389.1 ± 1.7	–	29.89 ± 0.9	175.4 ± 9.1
[1], 323.15 K	–	1384.8 ± 1.7	–	–	133.3 ± 5.5
[1], 328.15 K	–	1380.5 ± 1.7	–	29.48 ± 0.89	103.3 ± 3.2
[1], 333.15 K	–	1376.1 ± 1.7	–	–	81.7 ± 1.8
[1], 338.15 K	–	1371.8 ± 1.7	–	29.01 ± 0.88	65.6 ± 1
[1], 343.15 K	–	1367.5 ± 1.7	–	–	53.5 ± 0.6
[1], 348.15 K	–	1363.2 ± 1.7	–	–	44.3 ± 0.6
[1], 353.15 K	–	1358.9 ± 1.7	–	–	37.2 ± 0.5
[1], 358.15 K	–	1354.6 ± 1.7	–	–	31.5 ± 0.4
[1], 363.15 K	–	1350.3 ± 1.6	–	–	26.9 ± 0.4
[1], DTA	-51.9 ± 2	–	–	–	–
[3], 298.15 K	–	–	633 ± 64	–	–
[3], 323.15 K	–	–	643 ± 65	–	–
[3], 353.15 K	–	–	652 ± 66	–	–

Conditions	Triple point temperature [K]
[1], Crystal, DTA	280.2 ± 1.1

Conditions	Molar enthalpy of transition or fusion [kcal/mol]
[2]	4.5 ± 0.139

CCCC[n+]1cccc(C#N)c1.O=S(=O)([N-]S(=O)(=O)C(F)(F)F)C(F)(F)F [1-butyl-3-cyanopyridinium bis(trifluoromethylsulfonyl)imide]
Conditions	Glass transition temperature [°C]	mass density [kg/m3]	molar heat capacity at constant pressure [J/K/mol]	surface tension liquid-gas [mN/m]	viscosity [mPa·s]
[1], 293.15 K	–	1483.2 ± 12	–	–	1546.7 ± 220
[1], 298.15 K	–	1478.7 ± 12	–	32 ± 1.2	983.7 ± 120
[1], 303.15 K	–	1474.2 ± 12	–	–	659.7 ± 71
[1], 308.15 K	–	1469.7 ± 12	–	31.77 ± 1.2	485.1 ± 46
[1], 313.15 K	–	1465.3 ± 12	–	–	327.5 ± 26
[1], 318.15 K	–	1460.8 ± 12	–	31.59 ± 1.2	240.7 ± 16
[1], 323.15 K	–	1456.3 ± 12	–	–	182.6 ± 11
[1], 328.15 K	–	1452 ± 12	–	31.39 ± 1.2	140.5 ± 6.9
[1], 333.15 K	–	1447.7 ± 12	–	–	110.1 ± 4.5
[1], 338.15 K	–	1443.4 ± 11	–	31.09 ± 1.2	87.9 ± 3
[1], 343.15 K	–	1439.1 ± 11	–	–	67.6 ± 1.9
[1], 348.15 K	–	1434.8 ± 11	–	–	55.3 ± 1.4
[1], 353.15 K	–	1430.5 ± 11	–	–	45.8 ± 1.2
[1], 358.15 K	–	1426.3 ± 11	–	–	38.5 ± 1
[1], 363.15 K	–	1422 ± 11	–	–	32.8 ± 0.9
[1], DTA	-54.4 ± 2	–	–	–	–
[3], 298.15 K	–	–	586 ± 59	–	–
[3], 323.15 K	–	–	596 ± 60	–	–
[3], 353.15 K	–	–	605 ± 61	–	–
